Measured values reported in EP1082963A1, “REMEDIES FOR JOINT DISEASES BOUND TO HYALURONIC ACID” (CHUGAI SEIYAKU KABUSHIKI KAISHA, priority 1998, dated 1999).

Molecular target: gelatinase B (Homo sapiens, UniProt P14780)
Experiment: Gelatinase B inhibiting activity of synovial fluid recovered after intraarticular administration
Format: in vivo, rats
Set-up: purchased Roche Diagnostics Co., Ltd
Conditions: Fig. 7
Description: The following agents (1 to 3) were administered into right knee joints of 9-10 week old rats (n=4 to 10) and the animals were sacrificed at time intervals; the joint cavities were washed with a total 0.5 ml of a physiological saline to recover a synovial fluid. • Agent 1: 30 nmol of compound 1 • Agent 2: a mixture of 30 nmol of compound 1 and 0.3 mg of HA • Agent 3: 0.3 mg of "conjugate 4" (having compound 1 bound in an amount equivalent to 30 nmol)
By using a kit for measuring gelatinase activity manufactured by Roche Diagnostics, the inhibiting activity of the synovial fluid against gelatinase B was calculated according to the following formula. Gelatinase B Inhibition Activity (%) = [(Enzymatic Activity in the Absence of Synovial Fluid - Enzymatic Activity in the Presence of Added Synovial Fluid)/Enzymatic Activity in the Absence of Synovial Fluid] x 100 [formula]
The results were shown by a mean value ± standard deviation. The gelatinase B inhibiting activity of the synovial fluid from the group administered compound 1 alone and the group administered the mixture of compound 1 and HA decreased to 20% two hours after administration and to less than 5% 17 hours after administration while in the group administered "conjugate 4" about 50% of the gelatinase B inhibiting activity remained 17 hours after administration.

gelatinase B, sequence (P14780 94-707, species assumed): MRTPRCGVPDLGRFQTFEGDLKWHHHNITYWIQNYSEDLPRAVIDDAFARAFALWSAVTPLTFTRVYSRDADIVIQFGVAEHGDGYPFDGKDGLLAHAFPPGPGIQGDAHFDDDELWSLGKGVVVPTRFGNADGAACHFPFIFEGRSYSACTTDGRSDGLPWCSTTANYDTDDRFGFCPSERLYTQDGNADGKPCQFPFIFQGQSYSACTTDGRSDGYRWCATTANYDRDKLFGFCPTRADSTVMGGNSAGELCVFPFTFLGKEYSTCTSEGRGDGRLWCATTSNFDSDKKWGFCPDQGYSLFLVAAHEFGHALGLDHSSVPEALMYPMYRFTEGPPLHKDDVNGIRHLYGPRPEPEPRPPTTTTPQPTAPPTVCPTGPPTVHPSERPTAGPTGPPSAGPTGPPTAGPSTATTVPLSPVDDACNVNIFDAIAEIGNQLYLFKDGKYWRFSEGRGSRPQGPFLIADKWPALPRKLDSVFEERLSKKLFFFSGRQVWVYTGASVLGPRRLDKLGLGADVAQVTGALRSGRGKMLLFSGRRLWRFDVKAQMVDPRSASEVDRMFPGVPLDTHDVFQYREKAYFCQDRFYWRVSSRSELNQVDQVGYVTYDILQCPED

gelatinase B inhibiting activity of the synovial fluid (17 hours after administration into rat right knee joint): less than 5% | gelatinase B inhibiting activity of the synovial fluid (two hours after administration into rat right knee joint): 20%
SMILES: CNC(=O)[C@H](Cc1c[nH]c2ccccc12)NC(=O)C(CC(=O)NO)CC(C)C (stereo partly drawn) [compound 1, N-[2-isobutyl-3-(N'-hydroxycarbonylamido)propanoyl]-L-tryptophan methylamide]
